Experimental findings from US8921397B2, “Benzofurane-piperidine compounds” (Hoffmann-La Roche Inc., priority 2011, dated 2014) are described below.

Data set [1] has as its target human D2 receptor (Homo sapiens (Human), UniProt P14416). The data set is described as follows: Radioligand binding ([3H]-spiperone) to human D2 receptor, HEK293 EBNA membranes. Particulars: HEK293 EBNA cells expressing human D2 receptor. Put shortly: (§1)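 Membranes from transiently transfected HEK293 EBNA cells (~7.5 μg protein/well) were incubated 1 h at RT with [3H]-spiperone (~0.7 nM for D2, 0.5 nM for D3) and ten compound concentrations (10 μM–0.1 nM) in Tris/NaCl/MgCl2/CaCl2 buffer pH 7.4. Filtration and scintillation counting, nonspecific with 10 μM spiperone; Ki via Cheng-Prusoff.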

The target in data set [2] is human D3 receptor (Homo sapiens (Human), UniProt P35462). As to the kind of experiment: Radioligand binding ([3H]-spiperone) to human D3 receptor, HEK293 EBNA membranes. Particulars: HEK293 EBNA cells expressing human D3 receptor. Put shortly: as §1
Sequence of human D3 receptor (P35462 whole entry): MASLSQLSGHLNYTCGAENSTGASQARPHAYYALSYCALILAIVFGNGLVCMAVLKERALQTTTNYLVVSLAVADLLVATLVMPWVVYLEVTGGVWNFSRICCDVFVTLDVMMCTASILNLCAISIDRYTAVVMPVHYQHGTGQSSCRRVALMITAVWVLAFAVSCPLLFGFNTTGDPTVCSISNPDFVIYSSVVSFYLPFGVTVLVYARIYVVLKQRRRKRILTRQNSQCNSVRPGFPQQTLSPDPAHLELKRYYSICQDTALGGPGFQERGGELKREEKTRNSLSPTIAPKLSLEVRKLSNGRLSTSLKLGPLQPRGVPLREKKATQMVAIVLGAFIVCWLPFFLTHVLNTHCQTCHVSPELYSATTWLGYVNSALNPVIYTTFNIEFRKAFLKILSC
For data set [3], the target named is human 5-HT2A receptor (Homo sapiens (Human), UniProt P28223). The data set is described as follows: Radioligand binding ([3H]-ketanserin) to human 5-HT2A receptor, HEK293 EBNA membranes. Particulars: HEK293 EBNA cells expressing human 5-HT2A receptor. Put shortly:
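Membranes from HEK293 EBNA cells transiently expressing the human receptor were incubated 1 h at RT with ~0.7 nM (D2) or 0.5 nM (D3) [3H]-spiperone, or 1.1 nM [3H]-ketanserin (5-HT2A), plus ten compound concentrations (10 μM–0.1 nM). Nonspecific binding was set with 10 μM spiperone; Ki was derived from IC50 via Cheng-Prusoff.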

One may read the Ki as a measure of affinity in units of concentration, obtained from inhibition or displacement. In general, melting point refers to the temperature of the solid-liquid transition.

Sequence of human 5-HT2A receptor (P28223 whole entry): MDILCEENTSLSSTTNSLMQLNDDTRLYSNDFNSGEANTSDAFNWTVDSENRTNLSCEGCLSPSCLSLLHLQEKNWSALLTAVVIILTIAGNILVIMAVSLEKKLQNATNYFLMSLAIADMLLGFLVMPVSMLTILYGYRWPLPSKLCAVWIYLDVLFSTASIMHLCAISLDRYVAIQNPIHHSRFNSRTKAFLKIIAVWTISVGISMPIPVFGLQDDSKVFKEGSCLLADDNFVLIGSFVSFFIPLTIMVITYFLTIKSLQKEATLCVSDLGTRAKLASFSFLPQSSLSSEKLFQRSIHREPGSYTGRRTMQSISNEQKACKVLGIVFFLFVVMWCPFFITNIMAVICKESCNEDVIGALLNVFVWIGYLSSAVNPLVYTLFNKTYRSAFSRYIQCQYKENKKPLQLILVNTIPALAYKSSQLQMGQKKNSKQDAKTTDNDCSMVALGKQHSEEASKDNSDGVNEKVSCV
Sequence of human D2 receptor (P14416 whole entry): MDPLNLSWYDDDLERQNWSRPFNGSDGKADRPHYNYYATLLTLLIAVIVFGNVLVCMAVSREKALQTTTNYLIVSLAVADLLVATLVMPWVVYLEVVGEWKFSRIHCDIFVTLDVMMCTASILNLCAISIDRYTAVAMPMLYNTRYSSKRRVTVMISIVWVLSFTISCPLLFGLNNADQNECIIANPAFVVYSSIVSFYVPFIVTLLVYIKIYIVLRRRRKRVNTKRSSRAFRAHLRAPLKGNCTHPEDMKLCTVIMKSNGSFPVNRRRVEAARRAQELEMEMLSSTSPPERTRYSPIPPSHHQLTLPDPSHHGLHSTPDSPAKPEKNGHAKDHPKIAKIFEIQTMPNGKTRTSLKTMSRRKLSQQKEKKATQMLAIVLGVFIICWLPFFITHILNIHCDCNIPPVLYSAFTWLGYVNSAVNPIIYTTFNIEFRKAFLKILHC

The compound `O=C(N[C@H]1CC[C@H](CCN2CCC(c3coc4ccccc34)CC2)CC1)C(F)(F)F` [Example 39, trans-N-{4-[2-(4-Benzofuran-3-yl-piperidin-1-yl)-ethyl]-cyclohexyl}-2,2,2-trifluoro-acetamide] showed a melting point of 152 °C. The Ki in data set [1] was 37.5 nM. The Ki in data set [2] came out at 4.08 nM. Further, the Ki in data set [3] came out at 8.62 nM.

`N#Cc1ccc(C(=O)N[C@H]2CC[C@H](CCN3CCC(c4coc5ccccc45)CC3)CC2)cc1` [Example 70, trans-N-{4-[2-(4-Benzofuran-3-yl-piperidin-1-yl)-ethyl]-cyclohexyl}-4-cyano-benzamide] gave a melting point of 195 °C. The Ki in data set [1] was determined as 15.2 nM. In addition, in data set [2], the Ki amounted to 2.68 nM. Moreover, the Ki in data set [3] came out at 5.89 nM.

For `N#CCC(=O)N[C@H]1CC[C@H](CCN2CCC(c3coc4ccccc34)CC2)CC1` [Example 23, trans-N-{4-[2-(4-Benzofuran-3-yl-piperidin-1-yl)-ethyl]-cyclohexyl}-2-cyano-acetamide], the melting point amounted to 186 °C. Further, the Ki in data set [1] was 41.5 nM. The Ki in data set [2] was 0.84 nM. In data set [3], the Ki was 5.96 nM.

Turning to `Cc1nc(-c2ccc(C(=O)N[C@H]3CC[C@H](CCN4CCC(c5coc6ccccc56)CC4)CC3)cc2)no1` [Example 61, trans-N-{4-[2-(4-Benzofuran-3-yl-piperidin-1-yl)-ethyl]-cyclohexyl}-4-(5-methyl-[1,2,4]oxadiazol-3-yl)-benzamide], the melting point came out at 194 °C. Moreover, in data set [1], the Ki amounted to 227 nM. For the same compound, the Ki in data set [2] was determined as 2.87 nM. Besides, the Ki in data set [3] worked out at 15.1 nM.

Compound `O=C(CCO)N[C@H]1CC[C@H](CCN2CCC(c3coc4ccccc34)CC2)CC1` [Example 21, trans-N-{4-[2-(4-Benzofuran-3-yl-piperidin-1-yl)-ethyl]-cyclohexyl}-3-hydroxy-propionamide] gave a melting point of 148 °C. The Ki in data set [1] came to 62.9 nM. Moreover, the Ki in data set [2] stood at 1.27 nM. For the same compound, the Ki in data set [3] was found to be 8.26 nM.

`Cc1cc(C(=O)N[C@H]2CC[C@H](CCN3CCC(c4coc5ccccc45)CC3)CC2)on1` [Example 41, 3-Methyl-isoxazole-5-carboxylic acid trans-{4-[2-(4-benzofuran-3-yl-piperidin-1-yl)-ethyl]-cyclohexyl}-amide] gave a melting point of 178 °C. In addition, the Ki in data set [1] was 36.4 nM. The Ki in data set [2] was 4.23 nM. Besides, in data set [3], the Ki stood at 9.21 nM.

As for `O=C(CC1CCC1)N[C@H]1CC[C@H](CCN2CCC(c3coc4ccccc34)CC2)CC1` [Example 48, trans-N-{4-[2-(4-Benzofuran-3-yl-piperidin-1-yl)-ethyl]-cyclohexyl}-2-cyclobutyl-acetamide], the melting point is 173 °C. The inhibition constant (Ki) in data set [1] was found to be 58.2 nM. Also, in data set [2], the inhibitory constant (Ki) was determined as 2.05 nM. In addition, in data set [3], the Ki was determined as 4.94 nM.

In the case of `O=C(N[C@H]1CC[C@H](CCN2CCC(c3coc4ccccc34)CC2)CC1)c1ccc(C(F)(F)F)cc1` [Example 50, trans-N-{4-[2-(4-Benzofuran-3-yl-piperidin-1-yl)-ethyl]-cyclohexyl}-4-trifluoromethyl-benzamide], the melting point turned out to be 218 °C. Besides, in data set [1], the Ki is 152 nM. For the same compound, the Ki in data set [2] turned out to be 2.21 nM. In addition, the Ki in data set [3] turned out to be 4.75 nM.

For the compound `O=C(CC1CCOCC1)N[C@H]1CC[C@H](CCN2CCC(c3coc4ccccc34)CC2)CC1` [Example 4, trans-N-{4-[2-(4-Benzofuran-3-yl-piperidin-1-yl)-ethyl]-cyclohexyl}-2-(tetrahydro-pyran-4-yl)-acetamide], the melting point came out at 175 °C. Further, the Ki in data set [1] amounted to 77.6 nM. In data set [2], the inhibition constant (Ki) amounted to 3.14 nM. In addition, the Ki in data set [3] came to 5.37 nM.

The compound `O=C(N[C@H]1CC[C@H](CCN2CCC(c3coc4ccccc34)CC2)CC1)C1CCCOC1` (stereo partly drawn) [Example 26, Tetrahydro-pyran-3-carboxylic acid trans-{4-[2-(4-benzofuran-3-yl-piperidin-1-yl)-ethyl]-cyclohexyl}-amide] returned a melting point of 188 °C. Further, the Ki in data set [1] is 37.1 nM. Further, the Ki in data set [2] was determined as 5.88 nM. For the same compound, in data set [3], the Ki was 4.7 nM.

Compound `CC(C)Cc1ccc(C(=O)N[C@H]2CC[C@H](CCN3CCC(c4coc5ccccc45)CC3)CC2)cc1` [Example 80, trans-N-{4-[2-(4-Benzofuran-3-yl-piperidin-1-yl)-ethyl]-cyclohexyl}-4-isobutyl-benzamide] registered a melting point of 190 °C. Besides, the inhibition constant Ki in data set [1] worked out at 292 nM. In data set [2], the inhibition constant Ki was 4.16 nM. The Ki in data set [3] amounted to 2.69 nM.

As for `CCC(=O)N[C@H]1CC[C@H](CCN2CCC(c3coc4ccccc34)CC2)CC1` [Example 5, trans-N-{4-[2-(4-Benzofuran-3-yl-piperidin-1-yl)-ethyl]-cyclohexyl}-propionamide], the melting point worked out at 162 °C. For the same compound, in data set [1], the Ki worked out at 48.1 nM. Moreover, in data set [2], the Ki is 1.23 nM. In addition, in data set [3], the Ki is 4.52 nM.

In turn, `CC(C)(O)CC(=O)N[C@H]1CC[C@H](CCN2CCC(c3coc4ccccc34)CC2)CC1` [Example 34, trans-N-{4-[2-(4-Benzofuran-3-yl-piperidin-1-yl)-ethyl]-cyclohexyl}-3-hydroxy-3-methyl-butyramide] came in with a melting point of 150 °C. The Ki in data set [1] is 41.3 nM. The Ki in data set [2] stood at 2.25 nM. In data set [3], the Ki stood at 5.1 nM.

With `O=C(N[C@H]1CC[C@H](CCN2CCC(c3coc4ccccc34)CC2)CC1)c1cnc(N2CCOCC2)cn1` [Example 67, 5-Morpholin-4-yl-pyrazine-2-carboxylic acid trans-{4-[2-(4-benzofuran-3-yl-piperidin-1-yl)-ethyl]-cyclohexyl}-amide], the melting point worked out at 202 °C. The Ki in data set [1] stood at 106 nM. For the same compound, the Ki in data set [2] turned out to be 7.72 nM. Further, the Ki in data set [3] stood at 8.2 nM.

In turn, `CCCCC(=O)N[C@H]1CC[C@H](CCN2CCC(c3coc4ccccc34)CC2)CC1` [Example 57, Pentanoic acid trans-{4-[2-(4-benzofuran-3-yl-piperidin-1-yl)-ethyl]-cyclohexyl}-amide] showed a melting point of 167 °C. Further, the Ki in data set [1] was 65.7 nM. Also, the Ki in data set [2] amounted to 2.21 nM. Besides, the Ki in data set [3] was determined as 13 nM.

The compound `CC(C)(C)CC(=O)N[C@H]1CC[C@H](CCN2CCC(c3coc4ccccc34)CC2)CC1` [Example 40, trans-N-{4-[2-(4-Benzofuran-3-yl-piperidin-1-yl)-ethyl]-cyclohexyl}-3,3-dimethyl-butyramide] yielded a melting point of 174 °C. Moreover, the Ki in data set [1] turned out to be 53 nM. The Ki in data set [2] is 4.35 nM. The Ki in data set [3] was 10.4 nM.

Compound `C/C=C/CC(=O)N[C@H]1CC[C@H](CCN2CCC(c3coc4ccccc34)CC2)CC1` [Example 54, (E)-Pent-3-enoic acid trans-{4-[2-(4-benzofuran-3-yl-piperidin-1-yl)-ethyl]-cyclohexyl}-amide] registered a melting point of 165 °C. Further, the Ki in data set [1] was 58 nM. The Ki in data set [2] turned out to be 1.81 nM. For the same compound, the Ki in data set [3] came to 12.3 nM.

With `CS(=O)(=O)c1ccc(C(=O)N[C@H]2CC[C@H](CCN3CCC(c4coc5ccccc45)CC3)CC2)cc1` [Example 86, trans-N-{4-[2-(4-Benzofuran-3-yl-piperidin-1-yl)-ethyl]-cyclohexyl}-4-methanesulfonyl-benzamide], the melting point was 224 °C. Besides, the Ki in data set [1] was found to be 79.5 nM. Further, the Ki in data set [2] was 25 nM. The Ki in data set [3] is 5.79 nM.

On to `O=C(N[C@H]1CC[C@H](CCN2CCC(c3coc4ccccc34)CC2)CC1)c1ccccc1` [Example 9, trans-N-{4-[2-(4-Benzofuran-3-yl-piperidin-1-yl)-ethyl]-cyclohexyl}-benzamide], for which the melting point was 189 °C. Besides, the Ki in data set [1] worked out at 32.3 nM. Further, the inhibitory constant (Ki) in data set [2] came out at 1.34 nM. Also, the Ki in data set [3] stood at 4.36 nM.

As to `Cc1ccc(C(=O)N[C@H]2CC[C@H](CCN3CCC(c4coc5ccccc45)CC3)CC2)cn1` [Example 69, trans-N-{4-[2-(4-Benzofuran-3-yl-piperidin-1-yl)-ethyl]-cyclohexyl}-6-methyl-nicotinamide], the melting point was 203 °C. Also, the Ki in data set [1] stood at 28.1 nM. Further, in data set [2], the inhibitory constant (Ki) stood at 2.53 nM. Moreover, the Ki in data set [3] stood at 5.11 nM.
